Assays:
[1] = test system: Puccinia recondita f. Sp. Tritici; test: Fungicidal activity against Puccinia recondita f. sp. tritici / wheat / leaf disc curative (brown rust); format: in vivo; conditions: foliar, 24 h, 200 ppm in the applied formulation, wheat leaf segments cv. Kanzler, curative (applied 1 day after inoculation), compared to untreated, read-out: disease control
Experimental: Leaf disks or leaf segments of various plant species are cut from plants grown in a greenhouse. The cut leaf disks or segments are placed in multiwell plates (24-well format) onto water agar. The leaf disks are sprayed with a test solution before (preventative) or after (curative) inoculation. Compounds to be tested are prepared as DMSO solutions (max. 10 mg/mL) which are diluted to the appropriate concentration with 0.025% Tween20 just before spraying. The inoculated leaf disks or segments are incubated under defined conditions (temperature, relative humidity, light, etc.) according to the respective test system. A single evaluation of disease level is carried out 3 to 14 days after inoculation, depending on the pathosystem. Percent disease control relative to the untreated check leaf disks or segments is then calculated. Wheat leaf segments cv. Kanzler are placed on agar in multiwell plates (24-well format). The leaf segments are then inoculated with a spore suspension of the fungus. Plates were stored in darkness at 19C and 75% relative humidity. The formulated test compound diluted in water was applied 1 day after inoculation. The leaf segments were incubated at 19° C. and 75% relative humidity under a light regime of 12 hours light/12 hours darkness in a climate cabinet and the activity of a compound was assessed as percent disease control compared to untreated when an appropriate level of disease damage appears in untreated check leaf segments (6 to 8 days after application). The following compounds at 200 ppm in the applied formulation give at least 80% disease control in this test when compared to untreated control leaf disks under the same conditions, which show extensive disease development.

[2] = test system: Puccinia recondita f. Sp. Tritici; test: Fungicidal activity against Puccinia recondita f. sp. tritici / wheat / leaf disc preventative (brown rust); format: in vivo; conditions: foliar, 200 ppm in the applied formulation, wheat leaf segments cv. Kanzler, preventative (inoculated 1 day after application), compared to untreated, read-out: disease control
Experimental: Leaf disks or leaf segments of various plant species are cut from plants grown in a greenhouse. The cut leaf disks or segments are placed in multiwell plates (24-well format) onto water agar. The leaf disks are sprayed with a test solution before (preventative) or after (curative) inoculation. Compounds to be tested are prepared as DMSO solutions (max. 10 mg/mL) which are diluted to the appropriate concentration with 0.025% Tween20 just before spraying. The inoculated leaf disks or segments are incubated under defined conditions (temperature, relative humidity, light, etc.) according to the respective test system. A single evaluation of disease level is carried out 3 to 14 days after inoculation, depending on the pathosystem. Percent disease control relative to the untreated check leaf disks or segments is then calculated. Wheat leaf segments cv. Kanzler were placed on agar in multiwell plates (24-well format) and sprayed with the formulated test compound diluted in water. The leaf disks were inoculated with a spore suspension of the fungus 1 day after application. The inoculated leaf segments were incubated at 19° C. and 75% relative humidity (rh) under a light regime of 12 hours light/12 hours darkness in a climate cabinet and the activity of a compound was assessed as percent disease control compared to untreated when an appropriate level of disease damage appears in untreated check leaf segments (7 to 9 days after application). The following compounds at 200 ppm in the applied formulation give at least 80% disease control in this test when compared to untreated control leaf disks under the same conditions, which show extensive disease development.

[3] = test system: Glomerella lagenarium (Colletotrichum lagenarium); test: Fungicidal activity against Glomerella lagenarium (Colletotrichum lagenarium) liquid culture / cucumber / preventative (anthracnose); format: cell-based; conditions: Colletotrichum orbiculare; 20 ppm in the applied formulation; liquid culture (PDB), inhibition of growth measured photometrically 3 to 4 days after application; compared to untreated; read-out: disease control
Experimental: Mycelia fragments or conidia suspensions of a fungus prepared either freshly from liquid cultures of the fungus or from cryogenic storage, are directly mixed into nutrient broth. DMSO solutions of the test compound (max. 10 mg/mL) are diluted with 0.025% Tween20 by a factor of 50 and 10 μL of this solution is pipetted into a microtiter plate (96-well format). The nutrient broth containing the fungal spores/mycelia fragments is then added to give an end concentration of the tested compound. The test plates are incubated in the dark at 24° C. and 96% relative humidity. The inhibition of fungal growth is determined photometrically after 2 to 7 days, depending on the pathosystem, and percent antifungal activity relative to the untreated check is calculated. Conidia of the fungus from cryogenic storage are directly mixed into nutrient broth (PDB—potato dextrose broth). After placing a (DMSO) solution of test compound into a microtiter plate (96-well format), the nutrient broth containing the fungal spores is added. The test plates are incubated at 24° C. and the inhibition of growth is measured photometrically 3 to 4 days after application. The following compounds at 20 ppm in the applied formulation give at least 80% disease control in this test when compared to untreated control under the same conditions, which show extensive disease development.

N#Cc1cnn(Cc2ccc(-c3noc(C(F)(F)F)n3)s2)c1 [Compound 1.11, 1-[[5-[5-(trifluoromethyl)-1,2,4-oxadiazol-3-yl]-2-thienyl]methyl]pyrazole-4-carbonitrile]
≥ 80%: pest or weed control at 200 ppm [1] | pest or weed control at 200 ppm [2] | inhibition of growth at 20 ppm [3]

C#CCNC(=O)c1ccnn1Cc1ccc(-c2noc(C(F)(F)F)n2)s1 [Compound 1.168, N-prop-2-ynyl-2-[[5-[5-(trifluoromethyl)-1,2,4-oxadiazol-3-yl]-2-thienyl]methyl]pyrazole-3-carboxamide]
≥ 80%: pest or weed control at 200 ppm [1] | pest or weed control at 200 ppm [2] | inhibition of growth at 20 ppm [3]

CCNC(=O)c1cnn(Cc2ccc(-c3noc(C(F)(F)F)n3)s2)c1 [Compound 1.106, N-ethyl-1-[[5-[5-(trifluoromethyl)-1,2,4-oxadiazol-3-yl]-2-thienyl]methyl]pyrazole-4-carboxamide]
≥ 80%: pest or weed control at 200 ppm [1] | pest or weed control at 200 ppm [2] | inhibition of growth at 20 ppm [3]

CON(C)C(=O)c1ccnn1Cc1ccc(-c2noc(C(F)(F)F)n2)s1 [Compound 1.158, N-methoxy-N-methyl-2-[[5-[5-(trifluoromethyl)-1,2,4-oxadiazol-3-yl]-2-thienyl]methyl]pyrazole-3-carboxamide]
≥ 80%: pest or weed control at 200 ppm [1] | pest or weed control at 200 ppm [2] | inhibition of growth at 20 ppm [3]

O=C(c1ccnn1Cc1ccc(-c2noc(C(F)(F)F)n2)s1)N1CCOCC1 [Compound 1.166, morpholino-[2-[[5-[5-(trifluoromethyl)-1,2,4-oxadiazol-3-yl]-2-thienyl]methyl]pyrazol-3-yl]methanone]
≥ 80%: pest or weed control at 200 ppm [1] | pest or weed control at 200 ppm [2] | inhibition of growth at 20 ppm [3]

FC(F)(F)c1nc(-c2ccc(Cn3cncn3)s2)no1 [Compound 1.2, 3-[5-(1,2,4-triazol-1-ylmethyl)-2-thienyl]-5-(trifluoromethyl)-1,2,4-oxadiazole]
≥ 80%: pest or weed control at 200 ppm [1] | pest or weed control at 200 ppm [2] | inhibition of growth at 20 ppm [3]

CC(C)CNC(=O)c1ccnn1Cc1ccc(-c2noc(C(F)(F)F)n2)s1 [Compound 1.160, N-isobutyl-2-[[5-[5-(trifluoromethyl)-1,2,4-oxadiazol-3-yl]-2-thienyl]methyl]pyrazole-3-carboxamide]
≥ 80%: pest or weed control at 200 ppm [1] | pest or weed control at 200 ppm [2] | inhibition of growth at 20 ppm [3]

O=C(NC1CC1)c1ccn(Cc2ccc(-c3noc(C(F)(F)F)n3)s2)n1 [Compound 1.126, N-cyclopropyl-1-[[5-[5-(trifluoromethyl)-1,2,4-oxadiazol-3-yl]-2-thienyl]methyl]pyrazole-3-carboxamide]
≥ 80%: pest or weed control at 200 ppm [1] | pest or weed control at 200 ppm [2] | inhibition of growth at 20 ppm [3]

O=C(NCc1ccco1)c1cnn(Cc2ccc(-c3noc(C(F)(F)F)n3)s2)c1 [Compound 1.129, N-(2-furylmethyl)-1-[[5-[5-(trifluoromethyl)-1,2,4-oxadiazol-3-yl]-2-thienyl]methyl]pyrazole-4-carboxamide]
≥ 80%: pest or weed control at 200 ppm [1] | pest or weed control at 200 ppm [2] | inhibition of growth at 20 ppm [3]

CONC(=O)c1cnn(C(C)c2ccc(-c3noc(C(F)(F)F)n3)s2)c1 (stereo not drawn) [Compound 1.82, N-methoxy-1-[1-[5-[5-(trifluoromethyl)-1,2,4-oxadiazol-3-yl]-2-thienyl]ethyl]pyrazole-4-carboxamide]
≥ 80%: pest or weed control at 200 ppm [1] | pest or weed control at 200 ppm [2] | inhibition of growth at 20 ppm [3]

O=C(NCc1ccco1)c1ncn(Cc2ccc(-c3noc(C(F)(F)F)n3)s2)n1 [Compound 1.96, N-(2-furylmethyl)-1-[[5-[5-(trifluoromethyl)-1,2,4-oxadiazol-3-yl]-2-thienyl]methyl]-1,2,4-triazole-3-carboxamide]
≥ 80%: pest or weed control at 200 ppm [1] | pest or weed control at 200 ppm [2] | inhibition of growth at 20 ppm [3]

CC(C)(C)CNC(=O)c1ncn(Cc2ccc(-c3noc(C(F)(F)F)n3)s2)n1 [Compound 1.145, N-(2,2-dimethylpropyl)-1-[[5-[5-(trifluoromethyl)-1,2,4-oxadiazol-3-yl]-2-thienyl]methyl]-1,2,4-triazole-3-carboxamide]
≥ 80%: pest or weed control at 200 ppm [1] | pest or weed control at 200 ppm [2] | inhibition of growth at 20 ppm [3]

CC(c1ccc(-c2noc(C(F)(F)F)n2)s1)n1cc(C(=O)NCc2ccco2)cn1 (stereo not drawn) [Compound 1.85, N-(2-furylmethyl)-1-[1-[5-[5-(trifluoromethyl)-1,2,4-oxadiazol-3-yl]-2-thienyl]ethyl]pyrazole-4-carboxamide]
≥ 80%: pest or weed control at 200 ppm [1] | pest or weed control at 200 ppm [2] | inhibition of growth at 20 ppm [3]

CON(C)C(=O)c1cnn(Cc2ccc(-c3noc(C(F)(F)F)n3)s2)c1 [Compound 1.103, N-methoxy-N-methyl-1-[[5-[5-(trifluoromethyl)-1,2,4-oxadiazol-3-yl]-2-thienyl]methyl]pyrazole-4-carboxamide]
≥ 80%: pest or weed control at 200 ppm [1] | pest or weed control at 200 ppm [2] | inhibition of growth at 20 ppm [3]

CC(C)CNC(=O)c1cnn(Cc2ccc(-c3noc(C(F)(F)F)n3)s2)c1 [Compound 1.109, N-isobutyl-1-[[5-[5-(trifluoromethyl)-1,2,4-oxadiazol-3-yl]-2-thienyl]methyl]pyrazole-4-carboxamide]
≥ 80%: pest or weed control at 200 ppm [1] | pest or weed control at 200 ppm [2] | inhibition of growth at 20 ppm [3]

C=CCNC(=O)c1ncn(Cc2ccc(-c3noc(C(F)(F)F)n3)s2)n1 [Compound 1.151, N-allyl-1-[[5-[5-(trifluoromethyl)-1,2,4-oxadiazol-3-yl]-2-thienyl]methyl]-1,2,4-triazole-3-carboxamide]
≥ 80%: pest or weed control at 200 ppm [1] | pest or weed control at 200 ppm [2] | inhibition of growth at 20 ppm [3]

O=[N+]([O-])c1cnn(Cc2ccc(-c3noc(C(F)(F)F)n3)s2)c1 [Compound 1.9, 3-[5-[(4-nitropyrazol-1-yl)methyl]-2-thienyl]-5-(trifluoromethyl)-1,2,4-oxadiazole]
≥ 80%: pest or weed control at 200 ppm [1] | pest or weed control at 200 ppm [2] | inhibition of growth at 20 ppm [3]

CC(C)NC(=O)c1cnn(Cc2ccc(-c3noc(C(F)(F)F)n3)s2)c1 [Compound 1.102, N-isopropyl-1-[[5-[5-(trifluoromethyl)-1,2,4-oxadiazol-3-yl]-2-thienyl]methyl]pyrazole-4-carboxamide]
≥ 80%: pest or weed control at 200 ppm [1] | pest or weed control at 200 ppm [2] | inhibition of growth at 20 ppm [3]

Reference: patent US11358957B2, “Microbiocidal oxadiazole derivatives” (SYNGENTA PARTICIPATIONS AG, priority 2017, dated 2022)
